Assay results taken from paper PMC3845358 (Journal of immunology (Baltimore, Md. : 1950), 2013).
Values after ≈ are worked out from the molar mass of the structure shown.

What was measured:
Fbxo3 [1] = biological target: T1, Fbxo3 (Homo sapiens, UniProt Q9UK99); experiment: Reversibility of Fbxo3 inhibition by ultrafiltration and Fbxl2 pull-down; conditions: 1 mg/ml, one or three rounds of ultrafiltration (3 kDa cutoff)
T1 sequence (Q9UK99 1-471): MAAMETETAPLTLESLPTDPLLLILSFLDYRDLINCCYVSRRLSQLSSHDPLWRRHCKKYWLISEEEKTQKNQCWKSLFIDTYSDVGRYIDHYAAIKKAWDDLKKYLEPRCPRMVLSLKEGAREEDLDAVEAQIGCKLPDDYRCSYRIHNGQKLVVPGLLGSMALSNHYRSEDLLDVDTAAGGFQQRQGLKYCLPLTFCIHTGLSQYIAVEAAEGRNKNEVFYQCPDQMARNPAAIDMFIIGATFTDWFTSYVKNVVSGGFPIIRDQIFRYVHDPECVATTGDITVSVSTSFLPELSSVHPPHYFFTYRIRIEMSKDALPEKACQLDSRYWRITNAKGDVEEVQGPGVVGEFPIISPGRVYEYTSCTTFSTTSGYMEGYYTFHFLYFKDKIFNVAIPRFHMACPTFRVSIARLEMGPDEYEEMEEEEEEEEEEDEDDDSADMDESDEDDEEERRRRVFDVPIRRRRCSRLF

[2] = Observation of treated animals across the inflammation models; type: in vivo, mouse; conditions: parenteral, oral, topical application
[3] = test system: Human peripheral blood mononuclear (PBMC) cells; experiment: LPS-stimulated cytokine release from PBMC; type: cell-based; conditions: 16 h
[4] = test system: Murine lung epithelial (MLE) cells; experiment: Immunoblotting of Fbxl2, TRAFs and Fbxl2 substrates in MLE cells
SCF^Fbxo3 = SCF^Fbxo3 (Homo sapiens, UniProt Q9UK99); experiment: In vitro ubiquitin conjugation assay of Fbxl2; type: biochemical
Chain of SCF^Fbxo3 (Q13616 whole entry partner, one chain of several): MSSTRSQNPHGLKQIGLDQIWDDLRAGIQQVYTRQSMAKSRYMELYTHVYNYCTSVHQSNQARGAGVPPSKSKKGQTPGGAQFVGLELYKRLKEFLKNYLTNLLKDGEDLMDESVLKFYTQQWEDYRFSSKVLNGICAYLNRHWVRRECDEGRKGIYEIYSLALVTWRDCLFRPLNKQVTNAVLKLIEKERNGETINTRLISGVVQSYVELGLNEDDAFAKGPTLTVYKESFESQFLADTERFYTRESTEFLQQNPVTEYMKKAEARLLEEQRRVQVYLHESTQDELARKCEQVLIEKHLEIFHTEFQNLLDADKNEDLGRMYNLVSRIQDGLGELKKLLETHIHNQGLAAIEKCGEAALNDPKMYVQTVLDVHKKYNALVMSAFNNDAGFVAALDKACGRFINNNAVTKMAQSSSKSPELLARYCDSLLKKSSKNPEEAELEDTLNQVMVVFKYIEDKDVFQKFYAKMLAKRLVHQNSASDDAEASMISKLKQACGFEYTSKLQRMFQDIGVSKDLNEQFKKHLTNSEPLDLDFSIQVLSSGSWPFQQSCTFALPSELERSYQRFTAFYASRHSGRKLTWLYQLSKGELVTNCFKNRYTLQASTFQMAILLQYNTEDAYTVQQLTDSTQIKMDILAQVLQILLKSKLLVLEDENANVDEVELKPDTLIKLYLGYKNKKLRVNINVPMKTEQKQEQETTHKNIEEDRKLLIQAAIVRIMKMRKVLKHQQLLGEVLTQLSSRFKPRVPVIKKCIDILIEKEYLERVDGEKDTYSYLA
Chain of SCF^Fbxo3 (P63208 whole entry partner, one chain of several): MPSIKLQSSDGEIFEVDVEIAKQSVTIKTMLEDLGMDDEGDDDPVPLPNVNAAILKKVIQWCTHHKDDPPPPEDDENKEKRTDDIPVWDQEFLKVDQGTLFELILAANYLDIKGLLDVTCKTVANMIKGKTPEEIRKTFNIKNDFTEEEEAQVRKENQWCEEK
Chain of SCF^Fbxo3 (P62877 whole entry partner, one chain of several): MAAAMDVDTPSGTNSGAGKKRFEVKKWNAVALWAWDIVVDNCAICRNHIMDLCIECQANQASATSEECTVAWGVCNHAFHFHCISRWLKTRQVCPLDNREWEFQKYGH

COX-1 = COX-1 (Homo sapiens, UniProt P23219); experiment: Purified enzyme activity assay, COX-1; conditions: 10 µM, purified protein
Chain of COX-1 (P23219 24-599): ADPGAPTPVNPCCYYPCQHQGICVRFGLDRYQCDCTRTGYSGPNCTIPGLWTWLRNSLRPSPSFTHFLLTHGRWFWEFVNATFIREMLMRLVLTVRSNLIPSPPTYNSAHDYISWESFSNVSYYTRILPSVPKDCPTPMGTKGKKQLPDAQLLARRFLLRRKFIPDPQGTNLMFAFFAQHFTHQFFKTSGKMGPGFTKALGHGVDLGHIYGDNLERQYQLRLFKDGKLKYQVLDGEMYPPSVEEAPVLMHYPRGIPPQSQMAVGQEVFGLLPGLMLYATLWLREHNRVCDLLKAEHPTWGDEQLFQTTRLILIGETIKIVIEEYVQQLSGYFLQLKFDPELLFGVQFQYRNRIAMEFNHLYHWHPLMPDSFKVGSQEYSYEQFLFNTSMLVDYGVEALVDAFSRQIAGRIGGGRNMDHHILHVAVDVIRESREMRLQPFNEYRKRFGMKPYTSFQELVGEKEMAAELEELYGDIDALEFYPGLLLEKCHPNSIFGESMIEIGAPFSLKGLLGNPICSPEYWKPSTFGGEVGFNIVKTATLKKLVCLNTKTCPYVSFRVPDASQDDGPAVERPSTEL

bacterial growth = experiment: Kirby Bauer testing of bacterial growth; conditions: data not shown
[5] = test system: C57BL6 mice fed dextran sulfate sodium (DSS); experiment: DSS-induced colitis model; type: in vivo, mouse; conditions: 100 µg i.p. daily
[6] = test system: C57BL6 mice challenged with H1N1 (A/PR/8/34); experiment: H1N1 influenza pneumonia model; type: in vivo, mouse; conditions: 30 µg/ml in drinking water
COX-2 [7] = biological target: T2, COX-2 (Mus musculus, UniProt Q05769); experiment: COX-2 activity and COX-2 levels in MLE cells; type: cell-based, murine; conditions: 16 h
T2 sequence (Q05769 18-604): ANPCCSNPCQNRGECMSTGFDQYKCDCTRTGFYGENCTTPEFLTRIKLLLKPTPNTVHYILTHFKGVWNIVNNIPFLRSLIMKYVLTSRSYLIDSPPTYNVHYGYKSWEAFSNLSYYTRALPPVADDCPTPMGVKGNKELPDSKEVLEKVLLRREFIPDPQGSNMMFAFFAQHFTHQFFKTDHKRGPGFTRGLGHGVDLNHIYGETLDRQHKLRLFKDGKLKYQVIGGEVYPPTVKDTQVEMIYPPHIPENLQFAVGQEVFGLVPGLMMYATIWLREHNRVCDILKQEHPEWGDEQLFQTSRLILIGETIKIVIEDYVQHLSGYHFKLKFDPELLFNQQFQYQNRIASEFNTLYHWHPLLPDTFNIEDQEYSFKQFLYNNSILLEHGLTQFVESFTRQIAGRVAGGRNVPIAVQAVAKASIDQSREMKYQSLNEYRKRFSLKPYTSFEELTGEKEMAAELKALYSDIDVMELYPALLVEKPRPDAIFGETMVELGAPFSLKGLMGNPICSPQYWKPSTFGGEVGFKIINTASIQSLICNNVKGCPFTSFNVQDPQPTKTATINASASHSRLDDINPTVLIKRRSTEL

LPS-treated PBMC = experiment: Cytokine array of LPS-treated PBMC; type: cell-based, human; conditions: 10 µg/ml, LPS 2 µg/ml, 16 h
TRAF 1–6 in MLE cells = experiment: TRAF protein half-life; conditions: different concentrations, 16 h
LOX-1 = experiment: Purified enzyme activity assay, LOX-1; conditions: 10 µM, purified protein
COX-2 [8] = biological target: T3, COX-2 (Homo sapiens, UniProt P35354); experiment: Purified enzyme activity assay, COX-2; conditions: 10 µM, purified protein
T3 sequence (P35354 18-604): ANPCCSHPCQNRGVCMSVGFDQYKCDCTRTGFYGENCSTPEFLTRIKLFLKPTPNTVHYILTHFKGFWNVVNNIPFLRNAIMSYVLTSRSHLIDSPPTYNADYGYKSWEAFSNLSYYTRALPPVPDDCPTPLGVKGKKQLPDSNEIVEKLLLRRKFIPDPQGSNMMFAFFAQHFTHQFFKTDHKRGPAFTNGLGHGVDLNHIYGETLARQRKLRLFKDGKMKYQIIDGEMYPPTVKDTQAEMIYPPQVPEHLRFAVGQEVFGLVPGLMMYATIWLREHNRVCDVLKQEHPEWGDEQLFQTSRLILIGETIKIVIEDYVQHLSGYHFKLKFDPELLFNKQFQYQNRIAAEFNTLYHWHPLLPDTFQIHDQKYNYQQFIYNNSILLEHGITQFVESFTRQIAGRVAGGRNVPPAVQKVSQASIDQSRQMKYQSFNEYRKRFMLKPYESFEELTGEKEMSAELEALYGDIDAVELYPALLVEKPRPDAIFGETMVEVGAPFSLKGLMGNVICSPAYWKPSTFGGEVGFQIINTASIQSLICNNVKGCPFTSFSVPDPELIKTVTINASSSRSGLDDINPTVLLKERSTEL

Fbxo3 [9] = biological target: T1, Fbxo3; experiment: Fbxo3/Fbxl2 protein interaction pull-down assay; type: binding; conditions: Fbxo3 beads from Hela cell lysates, 10^−11 to 10^−4 M tested
[10] = test system: carrageenan-treated C57BL6 mice; experiment: Carrageenan paw edema model; type: in vivo, mouse; conditions: 100 µg i.p. daily, 48 h, versus vehicle
[11] = test system: C57BL6 mice given TPA on ears; experiment: TPA-induced ear edema model; type: in vivo, mouse; conditions: topical 8, 40, 200 ug/ear, 18 h after TPA, versus vehicle

Structure (SMILES): c1ccc(-c2ccc(CNCCNCc3ccc(-c4ccccn4)cc3)cc2)nc1 [BC-1215]
- reversibility of Fbxo3 inhibition (Fbxo3 [1]): reversible
- overt signs of distress in treated animals [2]: not observed to exhibit overt signs of distress
- IC50 ([3]; Homo sapiens, read-out: IC50 for IL-1β): 0.9 µg/mL (≈ 2.28 µM)
- TNFα-induced TRAF2/TRAF3 up-regulation and p38, p-IKK activation ([4]; MLE cells co-treated with TNFα 10 ng/ml, 6 h): suppress such effects in a dose-dependent manner
- levels of Fbxl2 substrates cyclin D2, cyclin D3 and CCT ([4]; MLE cells, 16 h, immunoblotting): reduced
- immunoreactive Fbxl2 and TRAF protein levels ([4]; cells, range of concentrations, compared to benzathine control): increased immunoreactive Fbxl2 levels and reduced TRAF proteins
- IC50 (SCF^Fbxo3): 100 nM
- inhibition of COX-1 enzymatic activity (COX-1): does not cause significant inhibitory effects
- inhibition of bacterial growth (bacterial growth): modest inhibition of bacterial growth
- colon length ([5]; 3.5% DSS five days, compared to control): no significant decrease in colon length
- TRAF protein levels in colon tissue ([5]; immunoblotting): significant reduction of immunoreactive TRAF2 and TRAF4 content
- IL1β level in colonic tissue ([5]; versus vehicle): large reduction
- TNFα level in colonic tissue ([5]; versus vehicle): large reduction
- colon histology (H&E and Alcian staining) ([5]; versus vehicle): significant restoration of colonic crypts with reappearance of goblet cells
- lavage cell counts [6]: remarkably decreased
- lavage protein concentration [6]: remarkably decreased
- lung compliance ([6]; day 5, FlexiVent): increased compliance
- lung elastance ([6]; day 5, FlexiVent): reduced elastance
- pulmonary edema, hemorrhage and alveolar inflammation ([6]; gross images and H&E): lessened severity
- survival ([6]; up to 9 d, versus diluent): significantly increased survival
- COX-2 activity in cells (COX-2 [7]; 10 µg/ml, positive control DuP-697): did not alter COX-2 activity
- immunoreactive COX-2 levels (COX-2 [7]; different concentrations, immunoblotting): did not alter immunoreactive COX-2 levels
- release of Th1 panel cytokines (LPS-treated PBMC): remarkably suppressed the majority of the Th1 panel cytokines
- TRAF steady-state mRNA levels (TRAF 1–6 in MLE cells): without altering TRAF steady-state mRNA levels
- inhibition of LOX-1 enzymatic activity (LOX-1): does not cause significant inhibitory effects
- inhibition of COX-2 enzymatic activity (COX-2 [8]): does not cause significant inhibitory effects
- concentration of maximal inhibitory binding (Fbxl2 pull-down by Fbxo3 beads) (Fbxo3 [9]): 10^−7 M
- paw edema (volume) [10]: significantly reduce
- paw thickness [10]: significantly reduce
- ear thickness [11]: significantly reduced
- ear weight (punch biopsy) [11]: significantly reduced

Structure (SMILES): c1ccc(CNCCNCc2ccccc2)cc1 [benzathine, reference compound]
- IC50 for IL-1β ([3]; LPS 2 µg/ml, ELISA): 25 µg/mL
